Measured values as given in a melting point compilation (Tetko et al.; mined from patent text by program, amines drawn as free bases though some values may be those of a salt).

Compared with `Cc1c(C)c2c(c(C)c1NC(=O)NC(C)(C)CO)C(c1ccc(C(C)C)cc1)CO2` (stereo unspecified), `Cc1c(Br)cc2c(c1C)OCC2c1ccc(C(C)C)cc1` (stereo unspecified) is lower in melting point: 157 to 158 °C for the first, 114 to 115 °C for the second.

First: COc1ccc(C(O)c2sccc2C=O)cc1OC (stereo unspecified)
Second: COc1ccc(OCCO)c(C=O)c1
The melting point of the first is higher: 90 to 91 °C for the first, 68 to 72 °C for the second.

Compared with `CN(C)c1ccc(CN=C(Cc2ccccc2)N2CC3C(=O)CCC(c4ccccc4)(c4ccccc4)C3C2)cc1` (stereo unspecified), `COc1ccccc1CP(CCP(Cc1ccccc1OC)c1ccccc1)c1ccccc1` (stereo unspecified) is lower in melting point: 186 °C for the first, 102 to 104 °C for the second.

Compared with `CCOC(=O)c1cnc2c(c(C)nc3ccnn32)c1O`, `CCOC(=O)c1cnc2snc(C)c2c1N(Cc1cccnc1)S(=O)(=O)c1ccc(OC)cc1` is lower in melting point: 190 to 192 °C for the first, 142 to 144 °C for the second.

First: Cc1ccc2c(n1)C(C(N)=O)CCC2 (stereo unspecified)
Second: CCOC(=O)c1cc2ccc(C(C)C)nc2s1
The melting point of the first is higher: 114 °C for the first, 73 to 74 °C for the second.

First: CS(=O)(=O)c1ccc(C2=C(c3ccc(F)cc3)CCC2)cc1
Second: Cc1ccc(-c2nnc(Cl)nc2-c2ccc(C)cc2)cc1
The melting point of the first is higher: 138 to 139 °C for the first, 126 to 130 °C for the second.

Compared with `O=Cc1ccc2c(c1)Sc1ccc(F)cc1C=C2`, `CC(=O)Nc1ccc(F)cc1OCCOc1ccc([N+](=O)[O-])cc1F` is higher in melting point: 137 to 139 °C for the first, 192 to 194 °C for the second.

First: O=C(NCc1ccccc1Cl)c1cccnc1Oc1cccc(F)c1
Second: O=C(c1ccccc1Cl)c1ccccc1Nc1ncccc1[N+](=O)[O-]
The melting point of the first is lower: 115 to 117 °C for the first, 119 °C for the second.

Going from `CC(=O)Nc1ccc2c(c1)C(c1cccn1-c1cccc(Cl)c1)C(=O)N2` (stereo unspecified) to `O=C1Nc2cc(NC(=O)c3c[nH]cc(-c4cccc(Cl)c4)c3=O)ccc2/C1=C/c1ccc[nH]1`, the melting point rises from 251 °C to over 300 °C.

First: N#Cc1ccc(OCc2ccsc2)cc1OC(C(=O)O)c1ccccc1Cl (racemic)
Second: O=C(O)COc1ccc(SCc2ccc(OCc3ccccc3)cc2)c2c1CCC2
The melting point of the first is lower: 68 to 70 °C for the first, 145 to 147 °C for the second.

Compared with `Cn1c(COc2ccc(CC3SC(=O)NC3=O)cc2)nc2ccc(Oc3ccc(NS(C)(=O)=O)cc3)cc21` (stereo unspecified), `CCOc1ccc(-c2ccc3c(c2)C=C(C(=O)Nc2ccc(CO)cc2)CCO3)cc1` is lower in melting point: 225 to 226 °C for the first, 208 to 210 °C for the second.

First: Cc1nc2ccccc2cc1NC(=O)N1CCN(c2cccc3ccccc23)CC1
Second: O=CN1CCN(C(=O)COc2cc(-c3ccccc3)nc3ccccc23)CC1
The melting point of the first is higher: 220 to 222 °C for the first, 170 °C for the second.

First: COc1ccc(S(=O)(=O)Nc2ccccc2NC(=O)c2cc(C)nc(Cl)c2)cc1
Second: COc1ccc(C(=O)Nc2ccccc2C(O)Cc2ccccn2)cc1 (stereo unspecified)
The melting point of the first is higher: 150 to 151 °C for the first, 127 to 128 °C for the second.

First: COC(=O)C(NC(C)=O)C(=O)OCCBr (stereo unspecified)
Second: CCOC(=O)C(Cc1ccccc1[N+](=O)[O-])(NC=O)C(=O)OCC
The melting point of the first is lower: 84 to 85 °C for the first, 129 to 132 °C for the second.

First: C=CCCCCCCOc1ccc(CCC(N)(CO)CO)cc1
Second: CCCCCC(CC(=O)Nc1cc(C(N)=O)ccc1C(C)(C)C)c1ccc(OCCCOCC)cc1OC (stereo unspecified)
The melting point of the first is lower: 95 to 98 °C for the first, 135 to 136 °C for the second.

Compared with `COC(=O)c1cc(C(=O)O)nc2cc(Cl)cc(Cl)c12`, `COC(=O)c1cc(Cl)ccc1-n1c(CCl)nc2ccccc2c1=O` is lower in melting point: 169 to 171 °C for the first, 135 to 136 °C for the second.

First: CC1(C)CC(=O)C(C(=O)Nc2ccc(Cl)c(Cl)c2)C(=O)C1
Second: CCOC(=O)Cn1c(=O)[nH]c(=O)c2ccc(Cl)cc21
The melting point of the first is lower: 124 to 129 °C for the first, 242 to 243 °C for the second.

First: NS(=O)(=O)c1cc(C(=O)O)cc([N+](=O)[O-])c1Nc1cccc(C(F)(F)F)c1
Second: NS(=O)(=O)c1cccc(-c2cccc(-c3nc(-c4ccc(Cl)cc4Cl)cc(C(F)(F)F)n3)c2)c1
The melting point of the first is higher: 213 to 215 °C for the first, 202 °C for the second.

Compared with `O=[N+]([O-])c1ccc(Cl)nc1-c1ccncc1`, `CC(c1ccc(NC=O)c([N+](=O)[O-])c1)n1ccnc1` (stereo unspecified) is higher in melting point: 137 to 138 °C for the first, 158 °C for the second.

First: O=C(NO)c1ccc2c(c1)CN(C(=O)c1cc3ccccc3cn1)C2
Second: FC(F)(F)c1cc(Br)cc(OCc2ccc3ccccc3c2)c1
The melting point of the first is higher: 208 to 210 °C for the first, 68 to 70 °C for the second.

First: CCOC(=O)Nc1ccc2c(c1)c1c(n2Cc2cccc(F)c2)CC[C@@H](NC(=O)C(C)C)C1
Second: CCc1c(CC(N)=O)c2cc(OCCCC(N)=O)ccc2n1Cc1ccccc1
The melting point of the first is lower: 169 to 171 °C for the first, 176 to 179 °C for the second.

First: Cc1ccc(C(=O)NC(NC(=S)Nc2cccc([N+](=O)[O-])c2)C(C)(C)C)cc1 (stereo unspecified)
Second: CC(C)(C)OC(=O)Nc1cc(OC(C)(C)C)c(C#Cc2ccc(F)cc2)cc1[N+](=O)[O-]
The melting point of the first is lower: 181 to 182 °C for the first, 201 °C for the second.

First: CN1CCN(CCCNC(=S)NC2CCCCC2)CC1
Second: COCCN1CCN(C)c2cc(Nc3ncc(Cl)c(N[C@@H]4CCCC[C@H]4NS(C)(=O)=O)n3)c(OC)cc2C1
The melting point of the first is higher: 109 to 111 °C for the first, 89 °C for the second.

First: COc1cc2c(cc1OC)C(=Cc1ccccc1[N+](=O)[O-])C(=O)CC2
Second: COc1c2c(cc3ccccc13)C(=O)NC2=O
The melting point of the first is lower: 63 to 64 °C for the first, 216 to 220 °C for the second.

First: OC(CN1CC=C(c2ccc(Cl)cc2)CC1)c1ccc(Cc2ccc(Cl)cc2)cc1 (stereo unspecified)
Second: Cc1c(NC(=O)c2ccc(-c3ccccc3F)cc2)ccc2cc(CN3CCCC3)cnc12
The melting point of the first is higher: 149 to 152 °C for the first, 133 to 135 °C for the second.

Compared with `Cc1cc(-n2cnn(Cc3ccc(C(F)(F)F)cc3)c2=O)sc1C(=O)NCc1cccnc1`, `CN1C(=O)CCN(c2ccc(C(F)(F)F)cc2)C1=O` is lower in melting point: 176 to 178 °C for the first, 115 to 117 °C for the second.

First: CC1(C)Nc2ncc(I)cc2NC1=O
Second: COc1cc(I)c(C(C)=O)cc1O
The melting point of the first is higher: over 300 °C for the first, 109 to 111 °C for the second.

Compared with `CN1CCN(C)C1=Nc1ccccc1N1CCOCC1`, `CN(C)C(N)=Nc1cc(Cl)ccc1N1CCOCC1` is higher in melting point: 133 to 134 °C for the first, 135 to 138 °C for the second.

First: O=C(NCC1CC1)N1CC(Oc2ccc(C(F)(F)F)cc2)C1
Second: CC(C(O)C(C)(C)Cc1ccc(OC(F)(F)F)cc1)n1ncnc1S (stereo unspecified)
The melting point of the first is higher: 132 to 133 °C for the first, 125 to 126 °C for the second.

First: CCCCCCCCCCCCCCCCOC(=O)C=CC(=O)NC(N)=O
Second: CCCCn1c(S)nnc1C(=O)O
The melting point of the first is lower: 106 °C for the first, 108 to 110 °C for the second.

Compared with `CC1Sc2c(C(=O)O)c(=O)c3cc(F)c(N4CCC(N)C4)cc3n21` (stereo unspecified), `COC(=O)C1CCc2cc(OCc3nc(-c4ccccc4)oc3C)ccc2C1O` (stereo unspecified) is lower in melting point: 238 to 240 °C for the first, 146 to 147 °C for the second.

Compared with `CC(=O)NC(=Cc1ccc(C#N)cc1)C(=O)N[C@H](C(=O)O)C1CCCCC1`, `CS(=O)(=O)c1ccc(-c2cc(CCCO[N+](=O)[O-])nn2CC2CCCCC2)cc1` is lower in melting point: 196 to 198 °C for the first, 76 to 77 °C for the second.

Compared with `N#Cc1nn(-c2c(Cl)cc(C(F)(F)F)cc2Cl)c(N)c1-c1ccc(SC(F)(F)F)s1`, `O=C(CC(F)(F)F)NCC(=O)n1ccc2cc(/C=C/C(c3cc(Cl)c(F)c(Cl)c3)C(F)(F)F)ccc21` (stereo unspecified) is lower in melting point: 162 to 163 °C for the first, 121 to 126 °C for the second.

First: Cc1cc(C)c(S(=O)(=O)NC(CSc2ccccc2)C(F)(F)F)c(C)c1 (stereo unspecified)
Second: COC(=O)[C@H]1C=C(c2ccccc2)OC(=O)[C@H]1Cc1ccccc1
The melting point of the first is lower: 76 to 78 °C for the first, 105 to 106 °C for the second.

Compared with `CCSc1ccc2oc3cc(-c4nnn[nH]4)ccc3c(=O)c2c1`, `Cc1oc(-c2ccccc2)nc1COc1ccc(CN(O)C(N)=O)c(Cl)c1` is lower in melting point: 261 to 262 °C for the first, 145 to 147 °C for the second.

Compared with `CN1CCN(c2ccc(/C=C/c3cc(/C=C/c4ccc5cc[nH]c5c4)[nH]n3)c(Br)c2)CC1`, `O=C1c2cc(F)ccc2CCC1CN1CCC2(CC1)C(=O)NCN2c1ccccc1` (stereo unspecified) is higher in melting point: 120 to 124 °C for the first, 162 to 165 °C for the second.

First: c1cncc(-c2nc3ncccc3[nH]2)c1
Second: O=C(Nc1cccnc1)c1cc2ccnc(Cl)c2[nH]1
The melting point of the first is lower: 133 to 135 °C for the first, over 320 °C for the second.

First: O=C(NC1CCN(CCCc2ccccc2)C1)C12CC3CC(CC(C3)C1)C2 (stereo unspecified)
Second: O=S1(=O)NC(C23CC4CC(CC(C4)C2)C3)Nc2c(Br)cc(Br)cc21 (stereo unspecified)
The melting point of the first is lower: 118 to 120 °C for the first, 270 to 273 °C for the second.

Compared with `Cc1sc2c(c1C)C(=O)NS2(=O)=O`, `Cc1cccc2[nH]c(=O)c(=O)[nH]c12` is higher in melting point: 187 °C for the first, 325 °C for the second.

First: CCc1c(Oc2cc(C)cc(C)c2)n(C/C=C/CO)c(=O)[nH]c1=O
Second: CCCc1c2nc(C(=O)OCC)cc(C#N)c2cc2c(=O)cc(C(=O)OCC)oc12
The melting point of the first is lower: 125 to 126 °C for the first, 207 to 209 °C for the second.

First: OC(COCC1CNCCO1)c1ccc2ccccc2c1 (stereo unspecified)
Second: O=C1OC(c2ccc(Cl)c(S(=O)(=O)Cl)c2)c2ccccc21 (stereo unspecified)
The melting point of the first is lower: 141 to 144 °C for the first, 158 to 159 °C for the second.

Compared with `CC(=O)c1cc2c(cn1)[nH]c1ccccc12`, `O=Cc1ccnc2ccc(Cl)cc12` is lower in melting point: 174 to 175 °C for the first, 152 to 153 °C for the second.

First: Cc1cc(Nc2ccnc(Nc3ccc(S(=O)(=O)N(C)C4CCN(Cc5cccn5C)CC4)cc3)n2)ccc1F
Second: Cc1ccc(S(=O)(=O)NCCCCOc2ccc(-n3cnnn3)cc2)cc1
The melting point of the first is higher: 159 to 160 °C for the first, 127 to 128 °C for the second.

Compared with `O=C1c2cc([N+](=O)[O-])ccc2CC2CCCCCN12` (stereo unspecified), `CCN1CCO[C@]2(C)c3cccc4[nH]cc(c34)C[C@@H]12` (relative stereo) is higher in melting point: 118 to 119 °C for the first, 129 to 130 °C for the second.

First: O=C(c1cccs1)c1cnn2c(-c3csc([N+](=O)[O-])c3)ccnc12
Second: CCOC(=O)[C@H](Cc1ccc(-c2c(OC)cc(CO)cc2OC)cc1)NC(=O)c1c(F)cccc1F
The melting point of the first is higher: 225 to 226 °C for the first, 70 to 72 °C for the second.

First: CC(C)(C)OC(=O)/C=C/c1ccc(C(=C2CCCCCCC2)c2ccc(O)cc2)cc1
Second: CCOc1c(C(=O)NC2CN3CCC2CC3)cc(Cl)c2c1CCCN2 (stereo unspecified)
The melting point of the first is higher: 171 to 172 °C for the first, 160 °C for the second.

Compared with `CC(C)c1ncc(CN2C(=O)C3(COc4cc5c(cc43)OCO5)c3ccccc32)o1` (stereo unspecified), `COc1ccc(NCCCCNC(C)=O)c2c1C(=O)c1ccccc1C2=O` is higher in melting point: 75 to 77 °C for the first, 151 to 153 °C for the second.

Compared with `O=C(Nc1c[nH]nc1C(=O)NCCCO)c1ccccn1`, `O=CNC1=NN(c2ccccc2)CC1` is lower in melting point: 209 to 211 °C for the first, 140 to 141 °C for the second.

Compared with `CN1COCNC1=N[N+](=O)[O-]`, `Cn1c(C(F)(F)F)n[nH]c1=O` is lower in melting point: 137 to 139 °C for the first, 64 °C for the second.

First: Nc1nc2c(ncn2COC(CC(=O)OC23CC4CC(CC(C4)C2)C3)CC(=O)OC23CC4CC(CC(C4)C2)C3)c(=O)[nH]1 (stereo unspecified)
Second: NCC1(Cc2noc(=O)[nH]2)CCCCC1
The melting point of the first is higher: 283 to 285 °C for the first, 109 to 111 °C for the second.

In the case of `CN1Cc2c(C#N)ncn2-c2ccc(Cl)cc2C1=O`, the melting point is reported as 272 to 275 °C.
